# Experimental data from patent US8748407B2 (The Research Foundation for the State University of New York, priority 2010, dated 2014).
# Columns and labels:
# [1] = biological target: T1, GluA2Qflip (Rattus norvegicus, UniProt P19491); assay: Whole-cell current recording, GluA2Qflip in HEK-293 cells; type: cell-based
# T1 construct: expressed in transfected cells; host or cells: HEK-293S
# From the text: (§1) The original cDNAs in pBlueScript encoding rat GluA1, 2 and 3 AMPA receptors and GluK2 kainate receptor were kindly provided by Steve Heinemann. The GluA4 DNA plasmid was kindly provided by Peter Seeburg. The GluK1 plasmid was kindly provided by Geoffrey Swanson. The cDNAs of all three NMDA receptor subunits were gifts from John Woodward. All DNA plasmids were propagated using Escherichia coli host (DH5α) and purified using QIAGEN DNA purification kits.
# (§2) All of the receptors were transiently expressed in HEK-293S cell. HEK-293S cells were maintained in Dulbecco's modified Eagle's medium (DMEM) supplemented with 10% fetal bovine serum and 1% penicillin in a 37° C., 5% CO2, humidified incubator. Receptors were transiently transfected by using calcium phosphate or lipofectamine 2000 (Invitrogen). The DNA plasmids encoding green fluorescent protein (GFP) and T-antigen (TAg) were cotransfected in HEK-293 S cells. GFP was used as a transfection marker for cell recording, and TAg was cotransfected to potentiate the receptor expression at the single-cell level^6. Transfected cells were allowed to grow for 48 hour before they were used for recording.
# The procedure for whole-cell current recording to assay the inhibitory property of an RNA aptamer is known to those of skill in the art and has been previously described^7. […] The extracellular buffer composition is described above (see “Receptor Preparation”). For recording of the NMDA channels, the intracellualr solution contained (in mM) 140 CsCl, 1 MgCl2, 0.1 EGTA, and 10 HEPES (pH 7.2 adjusted by […]), while the extracellular solution contained (in mM) 135 NaCl, 5.4 KCl, 1.8 CaCl2, 10 glucose and 5 HEPES (pH 7.2 adjusted by NaOH). In the extracellular buffer, 2 μM of glycine was added (glycine was the co-agonist of NMDA receptor)^2. All reagents including aptamer were dissolved in the corresponding extracellular buffer and used. […] The whole-cell current was recorded using an Axopatch-200B amplifier at a cutoff frequency of 2-20 kHz by a built-in, eight-pole Bessel filter and digitized at 5-50 kHz sampling frequency using a Digidata 1322A from Axon Instruments (Molecular Devices, Sunnyvale, Calif.). The pClamp 8 software (Molecular Devices) was used for data acquisition. All whole-cell recordings were at −60 mV and 22° C.
# To deliver AG56 to a HEK-293 cell, a “Ψ”-shaped flow device was used. […] In all experiments reported in this study, a 6-second preincubation flow protocol was used for full aptamer preincubation. […] The corrected current amplitude was used for data analysis.
# Determination of KI,app by the ratio of the current amplitude in the absence and presence of inhibitor or A/A(I)—see FIG. 5 in the text. Equ. 10a and 10b were derived based on one inhibitor binding to the receptor. KI, app is the apparent inhibition constant for the inhibitor; other terms have been defined previously.
# Under this condition, the inhibition constant for the closed-channel conformation was determined from the ratio of the amplitude according to equ. 10a and 10b. Likewise, at a saturating ligand concentration (i.e., L>>K1), the majority of the receptors were in the open-channel state. Consequently, the inhibition constant associated with the open-channel conformation was measured. The basis of using the two ligand concentrations that corresponded to ˜4% and ˜96% fraction of the open-channel receptor form^7 to determine the corresponding inhibition constant was a putative difference in inhibition constant between the closed-channel and the open-channel conformation. At those low and high ligand concentrations^7, the apparent inhibition constants obtained were considered pertinent to the closed-channel and the open-channel conformations, respectively. Examples of using the current amplitude to determine the inhibition constant for an inhibitor include our previous study of two 2,3-benzodiazepine derivatives with the GluA2Qflip AMPA receptor^15.
# [2] = biological target: T2, GluK2 (Rattus norvegicus, UniProt P42260); assay: Whole-cell current recording, kainate receptor GluK2; type: cell-based
# T2 construct: expressed in transfected cells; host or cells: HEK-293S
# From the text: as §1
# as §2, with “GFP was used as a transfection marker for cell recording, and TAg was cotransfected to potentiate the receptor expression at the single-cell level^6. Transfected cells were allowed to grow for 48 hour before they were used for recording.” left out
# The procedure for whole-cell current recording to assay the inhibitory property of an RNA aptamer is known to those of skill in the art and has been previously described^7. […] The whole-cell current was recorded using an Axopatch-200B amplifier at a cutoff frequency of 2-20 kHz by a built-in, eight-pole Bessel filter and digitized at 5-50 kHz sampling frequency using a Digidata 1322A from Axon Instruments (Molecular Devices, Sunnyvale, Calif.). […]
# [3] = biological target: T1, GluA2Qflip; assay: Homologous competitive binding assay (32P-labeled aptamer, membrane-bound receptor)
# Experimental: Whether AG56 bound to the close-channel state or conformation, and if so, the affinity of binding were assayed by homologous competitive binding assay using ^32P-label^4. To do this, RNA was first dephosphorylated by using calf intestinal phosphatase (CIP), prior to the 5′-end ^32P-labeling^5. Labeled RNA was passed through a NucAway spin column (Applied Biosystem) to remove excess γ-^32P-ATP. Then, 1 μl of 10 nM of ^32P-labeled aptamer was mixed with 2 μg of yeast tRNA (Sigma) and a series of concentrations of unlabeled (cold) aptamer whose concentrations varied from 0-400 nM in the final reaction mix. The mixed aptamer sample was incubated first at 70° C. for 10 min and then at room temperature for 20 min, before mixed with the receptor. For receptor preparation, […] of the membrane-bound receptor was resuspended in 1× extracellular buffer with and without 1 mM of kainate (which corresponded to the open-channel state and the closed-channel state, respectively; for the latter, it corresponded to precisely the unliganded, closed-channel state). The final concentration for the receptor and for the hot aptamer, after mixing, was 0.4 nM and 0.1 nM, respectively. The mixture was incubated at 22° C. for 1 hour for binding. […] The radioactivity on the filter was quantified in a scintillation counter (Beckman LS6500). […]
# T1 sequence (P19491 22-883 isoform P19491-2): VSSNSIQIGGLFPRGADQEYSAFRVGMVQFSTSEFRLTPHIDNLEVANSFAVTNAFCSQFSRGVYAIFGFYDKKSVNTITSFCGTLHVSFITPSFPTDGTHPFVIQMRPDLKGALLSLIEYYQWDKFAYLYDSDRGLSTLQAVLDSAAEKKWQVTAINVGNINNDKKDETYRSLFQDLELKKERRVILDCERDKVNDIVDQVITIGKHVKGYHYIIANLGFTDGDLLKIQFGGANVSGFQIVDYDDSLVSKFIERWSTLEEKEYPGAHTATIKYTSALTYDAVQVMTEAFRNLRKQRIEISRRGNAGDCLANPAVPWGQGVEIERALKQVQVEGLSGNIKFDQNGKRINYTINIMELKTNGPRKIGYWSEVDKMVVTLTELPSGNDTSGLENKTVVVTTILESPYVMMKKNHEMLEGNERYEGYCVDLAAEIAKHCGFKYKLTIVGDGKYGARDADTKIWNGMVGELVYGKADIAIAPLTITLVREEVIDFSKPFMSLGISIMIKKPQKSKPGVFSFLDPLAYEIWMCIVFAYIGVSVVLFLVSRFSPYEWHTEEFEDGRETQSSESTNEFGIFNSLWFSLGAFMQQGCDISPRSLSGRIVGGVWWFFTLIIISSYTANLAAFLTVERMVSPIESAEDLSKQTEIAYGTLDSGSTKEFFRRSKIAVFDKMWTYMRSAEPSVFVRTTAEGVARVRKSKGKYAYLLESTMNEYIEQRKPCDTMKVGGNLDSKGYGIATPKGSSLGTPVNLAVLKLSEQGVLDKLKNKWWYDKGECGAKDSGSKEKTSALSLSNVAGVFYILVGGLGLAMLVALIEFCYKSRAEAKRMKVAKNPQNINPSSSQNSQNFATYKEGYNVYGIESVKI
# T2 sequence (P42260 32-908): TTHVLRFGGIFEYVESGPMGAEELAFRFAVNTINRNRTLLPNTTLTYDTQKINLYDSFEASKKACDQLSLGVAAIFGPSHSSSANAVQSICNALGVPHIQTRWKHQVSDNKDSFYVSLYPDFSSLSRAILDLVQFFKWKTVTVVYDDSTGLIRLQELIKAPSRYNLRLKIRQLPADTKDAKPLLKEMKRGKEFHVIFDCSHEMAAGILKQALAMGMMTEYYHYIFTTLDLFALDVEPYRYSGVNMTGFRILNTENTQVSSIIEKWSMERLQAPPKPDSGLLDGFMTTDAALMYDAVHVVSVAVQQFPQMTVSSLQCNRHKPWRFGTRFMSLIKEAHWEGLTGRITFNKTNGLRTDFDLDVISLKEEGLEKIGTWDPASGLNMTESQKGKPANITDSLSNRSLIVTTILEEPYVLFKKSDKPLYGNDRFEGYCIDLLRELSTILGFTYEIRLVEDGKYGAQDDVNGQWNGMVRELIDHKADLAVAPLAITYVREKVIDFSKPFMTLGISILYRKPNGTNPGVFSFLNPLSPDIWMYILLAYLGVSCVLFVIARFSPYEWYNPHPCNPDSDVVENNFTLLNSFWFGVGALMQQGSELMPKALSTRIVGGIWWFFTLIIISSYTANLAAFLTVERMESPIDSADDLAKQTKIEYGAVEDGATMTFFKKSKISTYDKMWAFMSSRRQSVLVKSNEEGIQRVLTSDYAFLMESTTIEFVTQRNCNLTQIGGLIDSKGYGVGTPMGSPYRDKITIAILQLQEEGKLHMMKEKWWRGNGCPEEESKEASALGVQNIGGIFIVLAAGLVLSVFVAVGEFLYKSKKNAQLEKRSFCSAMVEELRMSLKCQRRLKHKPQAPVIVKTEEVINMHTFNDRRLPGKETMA
substance,measurement,setting,value
"AG56: 56-nucleotide truncated version of AG1407, RNA aptamer (GGGAGAUUGUGAAGCGUAGGCUCGAGUUUGUCCCGCGAGCCAAAGAUUCCAGACCC; RNA, backbone not given here)","inhibitory function of shorter versions of AG1407, based on A/A(I)",[1]; GluA2Qflip,functional sequence
same,inhibition of the open-channel conformation,"[1]; GluA2Qflip, high glutamate concentration",selectively inhibited the open-channel
same,inhibition of the closed-channel conformation,"[1]; GluA2Qflip, low glutamate concentration",did not inhibit
same,Ki,"[1]; open-channel conformation of GluA2Qflip, 3 mM glutamate, read-out: inhibition constant",950 ± 200 nM
same,effect on kainate receptor channel,[2],did not affect
same,Kd,[3]; open-channel conformation (1 mM kainate),80 ± 23 nM
same,Kd,"[3]; unliganded, closed-channel conformation (without kainate)",68 ± 40 nM
